Measured values reported in patent US10040802B2, “Thienopyrazine inhibitors of IRAK4 activity” (MERCK SHARP & DOHME CORP., priority 2015, dated 2018).
Where a name gives a salt, the structure may show the parent alone.

Biological target: GST tagged IRAK4 (Homo sapiens (Human), UniProt Q9NWZ3)
Assay: IRAK4 Kinase Assay (IMAP fluorescence polarization)
Type: biochemical
Conditions: 0.5 nM GST tagged IRAK4, 100 μM ATP, 30 minutes at 25° C.
Experimental: The kinase activity of IRAK4 is determined by its ability to catalyze the phosphorylation of a fluorescent polypeptide substrate. The extent of phosphorylation is measured using the IMAP technology (Molecular Devices) where the phosphorylated fluorescent substrate binds to the large M(III)-based nanoparticles which reduces the rotational speed of the substrate and thus increases its fluorescent polarization (FP).
20 μL reaction mixture contains 10 mM TriHCl, pH 7.2, 0.5 nM GST tagged IRAK4 (SignalChem), 100 nM fluorescent peptide substrate (RP7030, Molecular Devices), 100 μM ATP, 1 mM DDT, 1 mM MgCl2, and 0.01% Tween 20. The reaction is initiated by the addition of ATP. After incubation for 30 minutes at 25° C., 60 μL of Progressive IMAP Reagent (Molecular Devices) is added to stop the reaction. Change in RP7030's FP is determined by a FP reader (Analyst HT, LJL BioSystems).

Chain of GST tagged IRAK4 (Q9NWZ3 whole entry): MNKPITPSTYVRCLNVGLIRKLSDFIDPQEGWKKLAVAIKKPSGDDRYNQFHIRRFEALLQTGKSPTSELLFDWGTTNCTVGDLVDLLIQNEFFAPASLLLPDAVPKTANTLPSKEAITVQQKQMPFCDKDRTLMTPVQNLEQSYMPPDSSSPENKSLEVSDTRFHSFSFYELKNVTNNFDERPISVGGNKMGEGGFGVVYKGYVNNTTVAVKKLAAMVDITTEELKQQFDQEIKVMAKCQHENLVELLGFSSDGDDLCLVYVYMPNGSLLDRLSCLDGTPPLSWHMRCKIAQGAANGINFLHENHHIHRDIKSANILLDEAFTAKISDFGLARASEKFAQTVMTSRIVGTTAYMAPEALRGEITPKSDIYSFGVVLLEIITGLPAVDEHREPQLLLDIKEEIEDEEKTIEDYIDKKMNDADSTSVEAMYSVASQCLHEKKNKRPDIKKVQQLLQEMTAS

SMILES	IC50
N#Cc1ccccc1NC(=O)c1csc2ncc(N[C@@H]3CCCNC3)nc12 [Example 85, N-(2-cyanophenyl)-2-[(3R)-piperidin-3-ylamino]-thieno[2,3-b]-pyrazine-7-carboxamide trifluoroacetate]	2 nM
O=C(Nc1ccsc1Cl)c1csc2ncc(N3CCCNCC3)nc12 [Example 52, N-(2-chlorothiophen-3-yl)-2-(1,4-diazepan-1-yl)thieno[2,3-b] pyrazine-7-carboxamide trifluoroacetate]	585 nM
Cn1cc(NC(=O)c2csc3ncc(N[C@@H]4CCCC[C@@H]4N)nc23)c(Br)n1 [Example 30, 2-{[(1R,2S)-2-aminocyclohexyl]amino}-N-(3-bromo-1-methyl-1H-pyrazol-4-yl)thieno[2,3-b] pyrazine-7-carboxamide trifluoroacetate]	0.6 nM
N#Cc1ccccc1NC(=O)c1csc2ncc(N3C[C@@H]4CC[C@H]3CN4)nc12 (single isomer, unassigned) [Example 97, N-(2-cyanophenyl)-2-[(1S,4S)- or (1R,4R)-2,5-diazabicyclo-[2.2.2]oct-2-yl]thieno[2,3-b]-pyrazine-7-carboxamide trifluoroacetate]	173 nM
Cn1cc(NC(=O)c2csc3ncc(N[C@@H]4CCCC[C@@H]4N)nc23)c(C(F)F)n1 [Example 25, 2-{[(1R,2S)-2-aminocyclohexyl]amino}-N-[3-(difluoromethyl)-1-methyl-1H-pyrazol-4-yl]thieno[2,3-b] pyrazine-7-carboxamide trifluoroacetate]	0.2 nM
Cn1cc(NC(=O)c2csc3ncc(N4CCCNCC4)nc23)c(C(F)F)n1 [Example 14, 2-(1,4-diazepan-1-yl)-N-[3-(difluoromethyl)-1-methyl-1H-pyrazol-4-yl]thieno[2,3-b] pyrazine-7-carboxamide trifluoroacetate]	5 nM
N[C@@H]1[C@H](Nc2cnc3scc(C(=O)Nc4ccsc4Cl)c3n2)CCCC1(F)F [Example 60, 2-{[(1R,2R)-2-amino-3,3-difluorocyclohexyl]amino}-N-(2-chloro-thiophen-3-yl) thieno[2,3-b] pyrazine-7-carboxamide trifluoroacetate]	1410 nM
N[C@H]1CCCC[C@H]1Nc1cnc2scc(C(=O)Nc3cscc3C(F)F)c2n1 [Example 50, 2-{[(1R,2S)-2-aminocyclohexyl]amino}-N-(4-(difluoromethyl)thiophen-3-yl] thieno[2,3-b] pyrazine-7-carboxamide trifluoroacetate]	0.7 nM
Cn1cc(NC(=O)c2csc3ncc(N4CCC[C@@H](N)C4)nc23)c(C(F)F)n1 [Example 24, 2[(3R)-3-aminopiperidin-1-yl] N-[3-(difluoromethyl)-1-methyl-1H-pyrazol-4-yl]thieno[2,3-b] pyrazine-7-carboxamide trifluoroacetate]	0.2 nM
N#Cc1sccc1NC(=O)c1csc2ncc(N[C@@H]3CCCC[C@@H]3N)nc12 [Example 77, 2-{[(1R,2S)-2-amino-cyclohexyl]amino}-N-(2-(cyanothiophen-3-yl)thieno[2,3-b]pyrazine-7-carboxamide trifluoroacetate]	0.5 nM
N[C@@H]1[C@H](Nc2cnc3scc(C(=O)Nc4ccsc4Br)c3n2)CCCC1(F)F [Example 71, 2-{[(1R,2R)-2-amino-3,3-difluorocyclohexyl]amino}-N-(2-bromothiophen-3-yl) thieno[2,3-b] pyrazine-7-carboxamide trifluoroacetate]	2070 nM
Cn1cc(NC(=O)c2csc3ncc(N[C@@H]4CCCC(F)(F)[C@@H]4N)nc23)c(Cl)n1 [Example 43, 2-{[(1R,2R)-2-amino-3,3-difluorocyclohexyl]amino}-N-(3-chloro-1-methyl-1H-pyrazol-4-yl)thieno[2,3-b] pyrazine-7-carboxamide trifluoroacetate]	64 nM
O=C(Nc1cscc1Cl)c1csc2ncc(N3C[C@H]4CC[C@@H]3CN4)nc12 (single isomer, unassigned) [Example 109, N-(4-chlorothiophen-3-yl)-2-[(1S,4S)- or (1R,4R)-2,5-diazabicyclo-[2.2.2]oct-2-yl]-thieno[2,3-b]-pyrazine-7-carboxamide trifluoroacetate]	104 nM
O=C(Nc1ccsc1Br)c1csc2ncc(N3C[C@@H]4CC[C@H]3CN4)nc12 (single isomer, unassigned) [Example 63, N-(2-bromothiophen-3-yl)-2-[(1S,4S)- or (1R,4R)-2,5-diazabicylo[2.2.2]oct-2-yl]thieno[2,3-b] pyrazine-7-carboxamide trifluoroacetate]	324 nM
Cn1cc(NC(=O)c2csc3ncc(N4CCCNCC4)nc23)c(C#N)n1 [Example 28, N-(3-cyano-1-methyl-1H-pyrazol-4-yl)-2-(1,4-diazepan-1-yl)thieno[2,3-b] pyrazine-7-carboxamide trifluoroacetate]	26 nM
O=C(Nc1ccccc1Cl)c1csc2ncc(N3C[C@H]4CC[C@@H]3CN4)nc12 (single isomer, unassigned) [Example 100, N-(2-chlorophenyl)-2-[(1S,4S)- or (1R,4R)-2,5-diazabicyclo-[2.2.2]oct-2-yl]thieno[2,3-b]-pyrazine-7-carboxamide trifluoroacetate]	191 nM
N#Cc1ccccc1NC(=O)c1csc2ncc(N3CCC[C@@H](N)C3)nc12 [Example 84, 2-[(3R)-3-aminopiperidin-1-yl]-N-(2-cyanophenyl)-thieno[2,3-b]-pyrazine-7-carboxamide trifluoroacetate]	33 nM
O=C(Nc1cscc1C(F)F)c1csc2ncc(N3CCCNCC3)nc12 [Example 47, 2-(1,4-diazepan-1-yl)-N-[4-(difluoromethyl)thiophen-3-yl] thieno[2,3-b] pyrazine-7-carboxamide trifluoroacetate]	38 nM
Cn1cc(NC(=O)c2csc3ncc(N[C@@H]4CCCC(F)(F)[C@@H]4N)nc23)c(C(F)(F)F)n1 [Example 5, 2-{[(1R,2R)-2-amino-3,3-difluorocyclohexyl]amino}-N-[1-methyl-3-(trifluoromethyl)-1H-pyrazol-4-yl] thieno[2,3-b] pyrazine-7-carboxamide trifluoroacetate]	332 nM
N#Cc1sccc1NC(=O)c1csc2ncc(N3C[C@H]4CC[C@@H]3CN4)nc12 (single isomer, unassigned) [Example 70, N-(2-cyanothiophen-3-yl)-2-[(1S,4S)- or (1R,4R)-2,5-diazabicyclo[2.2.2]oct-2-yl]thieno[2,3-b] pyrazine-7-carboxamide trifluoroacetate]	224 nM
N[C@H]1CCCC[C@H]1Nc1cnc2scc(C(=O)Nc3ccccc3Br)c2n1 [Example 87, 2-{[(1R,2S)-2-aminocyclohexyl]-amino}-N-(2-bromophenyl)-thieno[2,3-b]-pyrazine-7-carboxamide trifluoroacetate]	2 nM
Cn1cc(NC(=O)c2csc3ncc(N[C@@H]4CCCC(F)(F)[C@@H]4N)nc23)c(Br)n1 [Example 29, 2-{[(1R,2R)-2-amino-3,3-difluorocyclohexyl]amino}-N-(3-(bromo-1-methyl-1H-pyrazol-4-yl)thieno[2,3-b]pyrazine-7-carboxamide trifluoroacetate]	107 nM
N[C@@H]1[C@H](Nc2cnc3scc(C(=O)Nc4cscc4Cl)c3n2)CCCC1(F)F [Example 111, 2-{[(1R,2R)-2-amino-3,3-difluorocyclohexyl]-amino}-N-(4-chlorothiophen-3-yl)thieno[2,3-b]-pyrazine-7-carboxamide trifluoroacetate]	645 nM
N[C@H]1CCCC[C@H]1Nc1cnc2scc(C(=O)Nc3ccccc3C(F)F)c2n1 [Example 102, 2-{[(1R,2S)-2-aminocyclohexyl]-amino}-N-[2-(difluoromethyl)phenyl]thieno-[2,3-b]-pyrazine-7-carboxamide trifluoroacetate]	25 nM
N[C@@H]1[C@H](Nc2cnc3scc(C(=O)Nc4ccccc4C(F)F)c3n2)CCCC1(F)F [Example 106, 2-{[(1R,2R)-2-amino-3,3-difluorocyclohexyl]-amino}-N-[2-(difluoromethyl)phenyl]thieno[2,3-b]pyrazine-7-carboxamide trifluoroacetate]	2580 nM
Cn1cc(NC(=O)c2csc3ncc(N4C[C@@H]5CC[C@H]4CN5)nc23)c(Cl)n1 (single isomer, unassigned) [Example 16, N-(3-chloro-1-methyl-1H-pyrazol-4-yl)-2-[(1S,4S)- or (1R,4R)-2,5-diazabicyclo[2.2.2]oct-2-yl]thieno[2,3-b] pyrazine-7-carboxamide trifluoroacetate]	73 nM
Cn1cc(NC(=O)c2csc3ncc(N[C@@H]4CCCNC4)nc23)c(C(F)(F)F)n1 [Example 4, trifluoroacetate]	0.8 nM
Cn1cc(NC(=O)c2csc3ncc(N[C@@H]4CCCC(F)(F)[C@@H]4N)nc23)c(C(F)F)n1 [Example 39, 2-{[(1R,2R)-2-amino-3,3-difluorocyclohexyl]amino}-N-[3-(difluoromethyl)-1-methyl-1H-pyrazol-4-yl]thieno[2,3-b] pyrazine-7-carboxamide]	32 nM
Cn1cc(NC(=O)c2csc3ncc(N4CC5CCC(C4)N5)nc23)c(C(F)(F)F)n1 [Example 41, 2-(3,8-diazabicyclo[3.2.1]oct-3-yl)-N-[1-methyl-3-(trifluoromethyl)-1H-pyrazol-4-yl]thieno[2,3-b] pyrazine-7-carboxamide trifluoroacetate]	18 nM
Cn1cc(NC(=O)c2csc3ncc(N4CC5CCC4CN5)nc23)c(C(F)(F)F)n1 (stereo not drawn) [Example 7, 2-(2,5-diazabicyclo[2.2.2]oct-2-yl)-N-[1-methyl-3-(trifluoromethyl)-1H-pyrazol-4-yl] thieno[2,3-b] pyrazine-7-carboxamide]	109 nM
